What was measured:
[1] = biological target: T1, amyloid-beta plaques (amyloid-beta (Aβ) 1-42) (Homo sapiens, UniProt P05067); experiment: Thioflavin T (ThT) fluorescence analysis of amyloid-beta plaque disaggregation; format: biochemical
T1 construct: amyloid-beta (Aβ) 1-42 (Anaspec, AS-20276, MW=4514.1, 1 mg); purchased Anaspec AS-20276
Method: To prepare amyloid-beta plaques, amyloid-beta (Aβ) 1-42 (Anaspec, AS-20276, MW=4514.1, 1 mg) was dissolved in a 1× PBS buffer (pH 7.4, 1 mL) to a final concentration of 222 μM. The solution was incubated (200 rpm) at 37° C. for 3 days, and the formed amyloid-beta plaques (Aβ plaques) were used in the following in vitro experiment without additional purification. From the formed library, hit compounds were identified through fluorescence analysis using thioflavin T (ThT), a probe of amyloid-beta plaques. Specifically, each amyloid-beta plaque disaggregation candidate (100 μM) was mixed with amyloid-beta plaques (10 μM) and ThT (10 μM), and incubated at 37° C. for 24 hours, and then a change in fluorescence intensity of ThT at 482 nm was confirmed (excitation wavelength: 413 nm). The absorption and emission spectra of ThT were obtained using UV/vis absorption spectroscopy (Agilent, California, USA) and a spectrofluorophotometer (Shimadzu Corp., Kyoto, Japan). For Compound P (ANA), a hit compound confirmed in Example 1, the amyloid-beta plaque disaggregation efficacy under various concentration conditions and pH conditions was confirmed through ThT assay in the same manner as in Example 1, and an emission intensity plot of ThT (10 μM) at 482 nm was shown in FIG. 2 (excitation wavelength: 413 nm).

[2] = biological target: T2, amyloid-beta plaques (Homo sapiens, UniProt P05067); experiment: Confocal microscopy of amyloid-beta plaques with thioflavin S (ThS); settings: incubation with ANA for 24 hours
T2 construct: amyloid-beta (Aβ) 1-42 (Anaspec, AS-20276, MW=4514.1, 1 mg); purchased Anaspec AS-20276
T2 sequence (P05067 672-713 limits assumed): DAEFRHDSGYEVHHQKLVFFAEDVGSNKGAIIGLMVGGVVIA
Method: (§1) To prepare amyloid-beta plaques, amyloid-beta (Aβ) 1-42 (Anaspec, AS-20276, MW=4514.1, 1 mg) was dissolved in a 1× PBS buffer (pH 7.4, 1 mL) to a final concentration of 222 μM. The solution was incubated (200 rpm) at 37° C. for 3 days, and the formed amyloid-beta plaques (Aβ plaques) were used in the following in vitro experiment without additional purification.
In addition, to evaluate the presence of amyloid-beta plaques (AB plaques) and a change in the disaggregation morphology of amyloid-beta plaques according to incubation with ANA for 24 hours, thioflavin S (ThS), a probe of amyloid-beta plaques, was additionally treated, and the change thereof was confirmed by fluorescence analysis using a confocal microscope. The samples (Aβ plaques, Aβ plaques +ANA) were added to 1 mL of a ThS (0.5%) solution, and each mixture was pipetted onto a slide glass and dried overnight at room temperature. Then, fluorescence images were obtained using a laser scanning confocal microscope (CLSM, LSM800, Zeiss, Oberkochen, Germany). Confocal images were obtained under excitation at 520 nm (laser power: 3.00%) using a detector (GaAsP, detector gain: 680 V, detector wavelength: 548 to 617 nm).

[3] = biological target: T2, amyloid-beta plaques; experiment: TEM analysis of amyloid-beta plaque morphology; settings: ANA (100 µM), plaques 20 μM
Method: as §1
For TEM analysis, amyloid-beta plaques (20 μM) or amyloid-beta plaques (20 μM) and a compound (ANA, 100 μM) were treated on copper grids at room temperature. Each grid treated with samples (Aβ plaques or Aβ plaques+ANA) was washed three times with DI H2O and then stained with uranyl acetate (1% w/v DI H2O, 5 μL) for 1 minute. The uranyl acetate was removed, the grids were dried at room temperature for 20 minutes, and then the morphology of amyloid-beta plaques was analyzed by transmission electron microscopic images (TEM, Tecnai, G2 F30ST, FEI Company, OR, USA).

[4] = biological target: T2, amyloid-beta plaques; experiment: ThT emission with supernatant of BCAP (released ANA); format: biochemical; settings: PBS pH 7.4, 25° C., ThT 10 μM

T1 sequence (P05067 672-713 limits assumed): as above

Question: What does the source list for `Nc1ccc2cc(S(=O)(=O)O)ccc2c1` [ANA, 6-amino-2-naphthalenesulfonic acid]?
Answer: amyloid-beta plaque disaggregation efficacy versus concentration ([1]; ANA 10 μM to 100 μM, plaques 10 μM): concentration-dependent manner; amyloid-beta plaque disaggregation efficacy at low concentration ([1]; ANA 10 μM, plaques 10 μM): significantly high amyloid-beta plaque disaggregation efficacy; fluorescence intensity change of ThT compared to a control group ([1]; candidate 100 μM, amyloid-beta plaques 10 μM, ThT 10 μM, 37° C., 24 hours, 482 nm): 23%; amyloid-beta plaque disaggregation efficacy among A-T candidates ([1]; candidate 100 μM, library screening): highest amyloid-beta plaque disaggregation efficacy; amyloid-beta plaque disaggregation efficacy under various pH conditions ([1]; pH 3, 5, 7, 7.4, and 9): showed amyloid-beta plaque disaggregation efficacy at all pH conditions; amyloid-beta plaque disaggregation efficacy at pH of the brain ([1]; pH 7.4): highest amyloid-beta plaque disaggregation efficacy; fluorescence intensity of ThS after treatment [2]: significantly reduced; morphology of amyloid-beta plaques after treatment (TEM) [3]: disaggregated and released into monomers; amyloid-beta plaque disaggregation efficacy of ANA released from BCAP [4]: still has the amyloid-beta plaque disaggregation efficacy

Reference: patent US20250295612A1, “NOVEL AMYLOID-BETA AGGREGATE DEGRADER AND BRAIN-TARGETING DRUG DELIVERY SYSTEM USING SAME” (UNIVERSITY-INDUSTRY COOPERATION GROUP OF KYUNG HEE …, priority 2022, published 2025)
